Legend:
[1] = Carew et al., J Biol Chem 2011; cited from earlier work
PC-3 = assay: 72 h MTT assay, PC-3; format: cell-based; settings: Homo sapiens, PC-3, Prostate
Experimental: (§1) Quantification of drug-induced cytotoxicity. Cell viability was assessed by MIT assay. Cells were seeded into 96-well microculture plates at […] per well and allowed to attach for 24 h. Cells were then treated with ROC-325 or HCQ for 72 h. Following drug treatment, MTT was added and cell viability was quantified using a BioTek (Winooski, Vt.) microplate reader. Pro-apoptotic effects following in vitro drug exposure were quantified by propidium iodide (PI) staining and fluorescence-activated cell sorting (FACS) analysis of sub-G0/G1 DNA content as previously described and by measurement of active caspase-3 by flow cytometry using a commercial kit (BD Biosciences, San Jose, Calif.). Mahalingam et al., Clin Cancer Res 2010; 16:141-53.

RL = assay: 72 h MTT assay, RL; format: cell-based; settings: Homo sapiens, NHL
Experimental: as §1

UACC-62 = assay: 72 h MTT assay, UACC-62; format: cell-based; settings: Homo sapiens, UACC-62, Melanoma
Experimental: as §1

COLO-205 = assay: 72 h MTT assay, COLO-205; format: cell-based; settings: Homo sapiens, COLO-205, Colon
Experimental: as §1

MiaPaCa-2 = assay: 72 h MTT assay, MiaPaCa-2; format: cell-based; settings: Homo sapiens, MIA PaCa-2, MiaPaCa-2, Pancreas
Experimental: as §1

A549 = assay: 72 h MTT assay, A549; format: cell-based; settings: Homo sapiens, A549, Lung
Experimental: as §1

DLD-1 = assay: 72 h MTT assay, DLD-1; format: cell-based; settings: Homo sapiens, DLD-1, Colon
Experimental: as §1

MCF-7 = assay: 72 h MTT assay, MCF-7; format: cell-based; settings: Homo sapiens, MCF7, MCF-7, Breast
Experimental: as §1

CFPAC-1 = assay: 72 h MTT assay, CFPAC-1; format: cell-based; settings: Homo sapiens, CFPAC-1, Pancreas
Experimental: as §1

A498 = assay: 72 h MTT assay, A498; format: cell-based; settings: Homo sapiens, A498, Renal
Experimental: (§2) Cells and cell culture. A498, 786-0, Achn and Caki-2 cells were obtained from ATCC (Manassas. Va.). Cells were cultured with medium supplemented with 10% FBS at 37° C. with 5% CO2 as previously described. Swords et al., Blood 2010; 115:3796.800. Human normal renal proximal tubule epithelial cells (RPTEC) were purchased from Clonetics (Walkersville, Md.) and cultured in REGM media (REGM BulletKit, Clonetics). Cell lines were authenticated by the source banks using DNA profiling techniques and were used for this study in accordance with AACR guidelines.
as §1

NCI-H69 = assay: 72 h MTT assay, NCI-H69; format: cell-based; settings: Homo sapiens, NCI-H69, Lung
Experimental: as §1

IGROV-1 = assay: 72 h MTT assay, IGROV-1; format: cell-based; settings: Homo sapiens, IGROV-1, Ovarian
Experimental: as §1

LC3B = LC3B immunocytochemistry; format: cell-based, human; settings: 5 μM, 24 hours, A498 and 786-0
Experimental: Immunocytochemistry. Cells were plated on chamber slides and allowed to attach overnight. Cells were then treated for 24 h with ROC-325. Following drug treatment, cells were fixed with 4% paraformaldehyde, permeabilized using 0.2% triton-X-100, and incubated overnight with anti-LC3B antibody. Alexa Fluor 594 conjugated fluorescent secondary antibody was used to visualize protein localization. Dapi was utilized to stain the nucleus. Images were captured using an Olympus fluorescent microscope (Center Valley, Pa.) with a DP71 camera and a 60× objective. Image-Pro Plus software Version 6.2.1 (MediaCybernetics, Bethesda, Md.) was used for image acquisition.

786-0 RCC xenografts = assay: In vivo evaluation in 786-O RCC xenografts; set-up: species or system nude mice
Experimental: In vivo evaluation of ROC-325 and HCQ. 786-O renal cancer cells (5×106) were suspended in a mixture of HBSS and Matrigel and subcutaneously implanted into female nude mice (BALB/c background). Tumor-bearing animals from each cell line xenograft were randomized into treatment groups. Mice were treated with vehicle (water), ROC-325 (25, 40, and 50 mg/kg PO), or HCQ (60 mg/kg IP) QD×5 for 6 weeks. Mice were monitored daily and tumor volumes were measured twice weekly. At study completion, tumors from representative animals were excised from each group, […], and paraffin-embedded for immunohistochemical analysis.
Immunohistochemistry. Paraffin-embedded tumor sections were deparaffinized in xylene, exposed to a graded series of alcohol, and rehydrated in PBS (pH 7.5). Heat-induced epitope retrieval on paraffin-embedded sections and probing with specific antibodies was conducted as previously described. Nawrocki et al., Clin Cancer Res 2013; 19:3577-90. Positive reactions were visualized using 3,3′-diaminobenzidine (Dako, Glostrup, Denmark). Images were captured using an Olympus fluorescent microscope (Center Valley. Pa.) with a DP71 camera and a 20× objective. Image-Pro Plus software Version 6.2.1 (MediaCybernetics, Bethesda, Md.) was used for image acquisition. ImageJ software was used for quantification of LC3B and p62 levels by densitometric analysis of five random fields containing viable tumor cells. Quantification of cleaved caspase-3 was conducted by counting the number of positive cells in five random fields as previously described. Carew et al., Cancer Res 2008; 68:4783-90.

cathepsin D (CTSD) = assay: Cathepsin D expression, microarray and qRT-PCR; format: cell-based, human; settings: A498 and 786-0, 5 μM, 24 hours; confirmed by qRT-PCR
Experimental: Expression microarrays. RCC cells were treated with […] for 24 h. Total RNAs were isolated using the RNeasy Plus Mini Kit (Qiagen, Germantown, Md.) and treated with TURBO DNA-Free™ Kit (Applied Biosystems, Foster City, Calif.), 300 ng of total RNA per sample was amplified and hybridized to GeneChip® Human Gene 1.0 ST arrays (Affymetrix, Inc., Santa Clara, Calif.) according to the manufacturer's instructions. Affymetrix CEL files were imported into Partek® Genomics Suite™ 6.4 (Partek Inc., St. Louis. Mo.) using the default Partek normalization parameters and the robust multi-array average (RMA) analysis adjusted for probe sequence and GC content (GC-RMA). Data normalization was performed across all arrays using quantile normalization.
Quantitative real time polymerase chain reaction, cDNA from ROC-325 treated cells were used for relative quantification by RT-PCR analyses. First-strand cDNA synthesis was performed from 1 μg RNA in a 20 μl reaction mixture using the high-capacity eDNA Reverse Transcription Kit (Applied Biosystems, Foster City, Calif.). Cathepsin D (CTSD) and GAPDH transcripts were amplified using commercially available TaqMan® Gene expression assays (Applied Biosystems, Foster City, Calif.). Relative gene expression was calculated with the 2-Ct method using GAPDH as a housekeeping gene. Pfaffl M W., Nucleic Acids Res 2001; 29:e45.

LC3B, p62, cathepsin D = assay: Immunoblotting of autophagy markers and autophagic flux with bafilomycin A1; format: cell-based, human
Experimental: Immunoblotting. Renal cancer cells were incubated with ROC-325 for 24 h. Cells were harvested and were then lysed as previously described. Nawrocki S T, Carew J S, Maclean K H, Courage J F, Huang P, Houghton J A, Cleveland J L, Giles F J, McConkey D J. Myc regulates aggresome formation, the induction of Noxa, and apoptosis in response to the combination of bortezomib and SAHA. Blood 2008; 112:2917-26. Approximately 50 μg of total cellular protein from each sample were subjected to SDS-PAGE, proteins were transferred to nitrocellulose membranes, and the membranes were blocked with 5% nonfat milk in a Tris-buffered saline solution containing 0.1% Tween-20 for 1 h. The blots were then probed overnight at 4° C. with primary antibodies, washed, and probed with species-specific secondary antibodies coupled to horseradish peroxidase. Immunoreactive material was detected by enhanced chemiluminescence (West Pico, Pierce, Inc., […]. Ill.).

786-O and A498 cells = assay: Acridine orange staining of acidic lysosomes; format: cell-based, human; settings: 24 h
Experimental: Acridine orange staining. Acidic lysosomes were visualized by acridine orange staining as previously described. Carew et al., J Biol Chem 2011; 286:6602-13. After treatment with ROC-325 for 24 h, cells were stained with 1 μM acridine orange for 15 minutes at 37° C. Cells were washed with PBS and images were captured using an Olympus fluorescent microscope. Acidic lysosomes appear as orange fluorescent cytoplasmic vesicles. Quantification of 5 random fields of acridine orange intensity and image acquisition were performed using Image-Pro Plus software Version 6.2.1.

RCC cells [2] = assay: Transmission electron microscopy; format: cell-based, human; settings: 5 μM, 24 h
Experimental: Transmission electron microscopy. Transmission electron microscopy of cells was performed as previously described. Carew et al., J Cell Mol Med 2010 Oct.; 14(10):2448-59. RCC cells were treated with ROC-325 for 24 h and harvested for imaging. Briefly, sections were cut in an LKB Ultracut microtome (Leica. Deerfield, Ill.), stained with uranyl acetate and lead citrate, and examined in a JEM 1230 transmission electron microscope (JEOL, USA, Inc., Peabody, Mass.). Images were captured using the AMT Imaging System (Advanced Microscopy Techniques Corp, Danvers. Mass.).

[3] = tested on: RCC cell lines (786-0, A498, Achn, and Caki-2); assay: MTT cell viability in RCC cell lines; format: cell-based, human; settings: 72 hours
Experimental: as §2, §1

[4] = tested on: 12 different human cancer cell lines; assay: Direct comparison of in vitro anticancer effects in 12 cancer cell lines (MTT); format: cell-based; settings: all 12 models tested, 72 h MTT
Experimental: as §1

A498 and 786-O cells = assay: Giemsa staining, vacuolization; format: cell-based, human; settings: 5 μM, 24 h
Experimental: Giemsa staining. Cells were plated in chamber slides as previously described and treated with ROC-325 for 24 h. Carew et al., J Biol Chem 2011; 286:6602-13. Following drug treatment, cells were washed with PBS and fixed in methanol for 5 minutes. Cells were then incubated for 1 h in Giemsa stain diluted 1:20 with deionized water. Cells were rinsed with water and imaged using an Olympus fluorescent microscope. Image-Pro Plus software Version 6.2.1 was used for image acquisition.

RCC cells [5] = assay: Apoptosis: active caspase-3 flow cytometry and PI-FACS DNA fragmentation; format: cell-based, human; settings: 48 hours
Experimental: as §1

[6] = tested on: normal renal proximal tubule endothelial cells (RPTEC); assay: MTT cell viability in normal renal cells; format: cell-based, human; settings: 72 hours
Experimental: as §2, §1

Row | SMILES | IC50 (PC-3) [µM] | IC50 (RL) [µM] | IC50 (UACC-62) [µM] | IC50 (COLO-205) [µM] | IC50 (MiaPaCa-2) [µM] | IC50 (A549) [µM] | IC50 (DLD-1) [µM] | IC50 (MCF-7) [µM] | IC50 (CFPAC-1) [µM] | IC50 (A498) [µM] | IC50 (NCI-H69) [µM] | IC50 (IGROV-1) [µM] | also measured
1 | CCN(CC)CCNc1ccc(C)c2sc3ccccc3c(=O)c12 [LUC, lucanthone] | – | – | – | – | – | – | – | – | – | – | – | – | anticancer activity compared to CQ [1]: approximately 10 ×
2 | CCN(CCO)CCCC(C)Nc1ccnc2cc(Cl)ccc12 (stereo not drawn) [HCQ, hydroxychloroquine, reference compound] | 58 | 35 | > 75 | 51 | > 75 | > 75 | > 75 | > 75 | > 75 | 52 | 54 | > 75 | –
3 | Cc1ccc(NCCN(C)CCNc2ccnc3cc(Cl)ccc23)c2c(=O)c3ccccc3sc12 [ROC-325] | 11 | 8.4 | 6 | 5.4 | 5.8 | 11 | 7.4 | 8.2 | 4.6 | 4.9 | 5 | 11 | LC3B distribution and levels (LC3B): formation of LC3B punctae and a robust increase in LC3B levels; tolerability (786-0 RCC xenografts; 25, 40, or 50 mg/kg PO, nude mice): well tolerated; disease progression (tumor volume) (786-0 RCC xenografts; 25, 40, or 50 mg/kg QD PO, 786-0 xenografts in nude mice): significant, dose-dependent inhibition of disease progression; LC3B in tumors (immunohistochemistry) (786-0 RCC xenografts; 786-0 xenograft specimens): significant, dose-dependent increases; apoptosis in tumors (cleaved caspase-3 immunohistochemistry) (786-0 RCC xenografts; 786-0 xenograft specimens): increased apoptosis; p62 in tumors (immunohistochemistry) (786-0 RCC xenografts; 786-0 xenograft specimens): significant, dose-dependent increases; mean body weight (786-0 RCC xenografts; highest dose, end of study (Day 46)): very modest, non-significant reduction; oral bioavailability (786-0 RCC xenografts; mice, PO): orally bioavailable; CTSD levels (cathepsin D (CTSD)): highly significant increase; autophagic flux (LC3B, p62, cathepsin D; 786-0, alone and combined with bafilomycin A1): effectively inhibited autophagic flux; LC3B expression (immunoblotting) (LC3B, p62, cathepsin D; A498 and 786-0, 24 h): dose-dependent increase; levels of p62 and cathepsin D (immunoblotting) (LC3B, p62, cathepsin D; A498 and 786-0, 24 h): corresponding increase; acridine orange fluorescence (lysosomal membrane permeability) (786-O and A498 cells): significant loss of acridine orange fluorescence; autophagosomes (RCC cells [2]): promoted the accumulation of autophagosomes; more effective at diminishing RCC cell viability than HCQ [3]: approximately 10 fold; lower IC50s than HCQ [4]: approximately 10 fold; cytosolic vacuolization (A498 and 786-O cells): induced cytosolic vacuolization; percentages of cells with active caspase-3 expression (RCC cells [5]): dose-dependent increases; percentages of cells with fragmented DNA (RCC cells [5]; PI-FACS): dose-dependent increases; cell viability of normal renal cells [6]: marginal reduction in cell viability

From patent US9926326B2, “Substituted thioxanthenone autophagy inhibitors” (THE CLEVELAND CLINIC FOUNDATION, priority 2014, dated 2018)
